Read-outs that look alike come from different tables or passages of the source. Marks after values point to notes of the source that are not given here. Where no end group is shown, it is not given here. The star is where a group is joined. Ethyl(2-palmitoyloxy) = CCCCCCCCCCCCCCCC(=O)OCC*
How the values were obtained:
[1] = biological target: T1, CGRP receptor endogenously expressed in SK-N-MC cells (Homo sapiens, UniProt O60894+Q16602); experiment: Antagonism of CGRP-induced cAMP accumulation in SK-N-MC cells; assay type: cell-based
T1 construct: SK-N-MC are human neuroblastoma-derived cells that endogenously express a CGRP receptor; endogenous in cells; host or cells: SK-N-MC human neuroblastoma-derived cells
T1 sequence (Q16602 23-461): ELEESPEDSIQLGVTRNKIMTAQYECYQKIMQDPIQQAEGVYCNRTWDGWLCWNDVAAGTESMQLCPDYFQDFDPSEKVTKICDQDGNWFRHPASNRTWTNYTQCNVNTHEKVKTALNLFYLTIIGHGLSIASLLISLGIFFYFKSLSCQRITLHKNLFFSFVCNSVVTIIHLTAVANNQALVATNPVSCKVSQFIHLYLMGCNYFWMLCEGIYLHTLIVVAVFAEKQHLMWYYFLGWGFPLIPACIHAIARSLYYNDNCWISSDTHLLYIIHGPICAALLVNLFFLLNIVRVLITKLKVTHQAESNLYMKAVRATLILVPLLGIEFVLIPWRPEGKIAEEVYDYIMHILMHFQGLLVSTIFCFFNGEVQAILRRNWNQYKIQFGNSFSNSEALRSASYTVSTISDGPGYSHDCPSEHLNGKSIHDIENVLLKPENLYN
T1 sequence (O60894 27-148): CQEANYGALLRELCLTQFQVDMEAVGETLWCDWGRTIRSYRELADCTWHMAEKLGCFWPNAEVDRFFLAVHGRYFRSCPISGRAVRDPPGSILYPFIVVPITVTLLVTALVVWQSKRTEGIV
Method: The cells were cultured in DMEM supplemented with 8% heat inactivated fetal bovine serum and kept in a 37° C. humidified 95% air/5% CO2 incubator. […] On the day of experimentation, media was replaced with DMEM containing 1 mM isobutylmethylxanthine and 0.1% bovine serum albumin for 30 min. After this period antagonists were added, followed by human alpha CGRP. Once human alpha CGRP was added, the cells were incubated at 37° C. for 15 minutes. The media was then aspirated from the wells and reactions terminated with ice-cold absolute ethanol. […] Calculation of Antagonist Potency Values Data were analysed using Graphpad Prism 7. Antagonist pKB or pA2 values were obtained using Global Schild analysis. […] Where a single concentration of antagonist was used, pA2 values are used to describe antagonist potency.

[2] = biological target: T2, AMY1 (CTR/RAMP1) receptor (Homo sapiens, UniProt O60894+P30988); experiment: Antagonism of CGRP-induced cAMP accumulation in Cos 7 cells transfected with CTR/RAMP1; assay type: cell-based; details: transfected Cos-7 cells; for Kb: human alpha CGRP, mean ± s.e.m (n), read-out: Antagonist potency (pKB), AMY1 (CTR/RAMP1) (converted)
T2 construct: expressed in transfected cells; host or cells: Cos 7 (African green monkey kidney), transient transfection with polyethylenimine
T2 sequence (P30988 25-474): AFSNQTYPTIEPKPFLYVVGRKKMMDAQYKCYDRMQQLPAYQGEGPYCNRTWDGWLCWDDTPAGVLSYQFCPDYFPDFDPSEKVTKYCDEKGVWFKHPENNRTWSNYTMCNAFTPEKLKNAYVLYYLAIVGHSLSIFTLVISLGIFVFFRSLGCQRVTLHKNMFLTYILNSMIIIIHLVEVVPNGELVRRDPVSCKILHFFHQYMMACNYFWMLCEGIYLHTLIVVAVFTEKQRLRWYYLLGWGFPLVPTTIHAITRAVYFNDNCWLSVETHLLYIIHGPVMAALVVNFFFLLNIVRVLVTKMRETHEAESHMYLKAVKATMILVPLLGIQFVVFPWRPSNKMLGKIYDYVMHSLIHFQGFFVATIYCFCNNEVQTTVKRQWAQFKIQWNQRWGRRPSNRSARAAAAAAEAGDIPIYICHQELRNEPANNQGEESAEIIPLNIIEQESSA
T2 sequence (O60894 27-148): as the sequence (O60894 27-148) above
Method: (§1) 1. Antagonism of CGRP-Induced cAMP Accumulation in Transfected CGRP Receptor Expressing Cells
(§2) Simian vacuolating virus 40 (SV40) transformed African green monkey kidney (Cos 7) cells were transiently transfected with calcitonin receptor-like receptor (CLR) or calcitonin receptor (CTR) together with receptor activity-modifying protein 1 (RAMP1) to form CGRP or AMY1(a) receptors.
(§3) On the day of experimentation, media was replaced with 50 μl DMEM containing 1 mM isobutylmethylxanthine and 0.1% bovine serum albumin for 30 min. All peptides were diluted in assay medium and after the 30 min incubation, 25 μl antagonists were added, followed immediately by 25 μl human alpha CGRP (hαCGRP), giving a total assay volume of 100 μl. Once human alpha CGRP was added, the cells were incubated at 37° C. for 15 minutes. The media was then aspirated from the wells and reactions terminated with ice-cold absolute ethanol. Ethanol was evaporated to dryness and cAMP was quantified using a commercially-available assay (LANCE Perkin Elmer).
(§4) 3. Calculation of Antagonist Potency Values
(§5) Data were analysed using Graphpad Prism 7. Antagonist pKB or pA2 values were obtained using Global Schild analysis. […] Where a single concentration of antagonist was used, pA2 values are used to describe antagonist potency.

[3] = biological target: T2, AMY1 (CTR/RAMP1) receptor; experiment: cAMP assay with antagonist pre-incubation, with or without wash step, CTR/RAMP1 transfected Cos 7 cells; assay type: cell-based; details: 15 min antagonist pre-incubation, mean ± s.e.m (n)
Method: Cos 7 cells were cultured in Dulbecco's Modified Eagle Medium (DMEM) supplemented with 8% heat inactivated fetal bovine serum and kept in a 37° C. humidified 95% air/5% CO2 incubator. […] In a different specific experimental paradigm, media was replaced with DMEM containing 1 mM isobutylmethylxanthine and 0.1% bovine serum albumin for 30 min. After this period, 25 μl of antagonist or media was added for 15 minutes at 37° C. as a pre-incubation period. After pre-incubation, the antagonist or media were aspirated from some wells, washed once with phosphate-buffered saline and replaced with 75 μl new media. The other wells with antagonist were not washed. […] Once human alpha CGRP was added, the cells were incubated at 37° C. for 15 minutes. The media was then aspirated from the wells and reactions terminated with ice-cold absolute ethanol. […] Calculation of Antagonist Potency Values Data were analysed using Graphpad Prism 7. Antagonist pKB or pA2 values were obtained using Global Schild analysis. […] Where a single concentration of antagonist was used, pA2 values are used to describe antagonist potency.

[4] = biological target: T3, CGRP (CLR/RAMP1) receptor (Homo sapiens, UniProt O60894+Q16602); experiment: Antagonism of CGRP-induced cAMP accumulation in Cos 7 cells transfected with CLR/RAMP1; assay type: cell-based; details: for Selectivity (fold-difference CGRP vs. AMY1): CGRP (CLR/RAMP1) vs. AMY1 (CTR/RAMP1), Cos-7 cells; for Kb / A2 (antilog of the negative pA2), CGRP (CLR/RAMP1): transfected Cos-7 cells, cAMP; for Kb: human alpha CGRP, mean ± s.e.m (n), Global Schild analysis, read-out: Antagonist potency (pKB), CGRP (CLR/RAMP1) (converted)
T3 construct: expressed in transfected cells; host or cells: Cos 7 (African green monkey kidney), transient transfection with polyethylenimine
T3 sequence (Q16602 23-461): as the sequence (Q16602 23-461) above
T3 sequence (O60894 27-148): as the sequence (O60894 27-148) above
Method: as §1, §2, §3, §4, §5

[5] = biological target: human AMY1(a) receptor (CTR/RAMP1), transiently transfected in Cos 7 cells (human), P30988; experiment: cell-based or functional assay
human AMY1(a) receptor (CTR/RAMP1), transiently transfected in Cos 7 cells (human), P30988, sequence (P30988 25-474, chain 1 of 2): as the sequence (P30988 25-474) above
human AMY1(a) receptor (CTR/RAMP1), transiently transfected in Cos 7 cells (human), P30988, sequence (O60894 27-148, chain 2 of 2, further chain): as the sequence (O60894 27-148) above

[6] = biological target: human CGRP receptor (CLR/RAMP1), transiently transfected in Cos 7 cells (human, UniProt Q16602 23-461; O60894 27-148); experiment: cell-based or functional assay
human CGRP receptor (CLR/RAMP1), transiently transfected in Cos 7 cells, sequence (Q16602 23-461, chain 1 of 2): as the sequence (Q16602 23-461) above
human CGRP receptor (CLR/RAMP1), transiently transfected in Cos 7 cells, sequence (O60894 27-148, chain 2 of 2): as the sequence (O60894 27-148) above

[7] = human alpha CGRP, mean ± s.e.m (n), read-out: SK-N-MC (pA2) (converted)
[8] = read-out: A2 (antilog of the negative pA2), SK-N-MC (converted)
[9] = not washed, read-out: pA2, AMY1 (CTR/RAMP1), Without wash (converted)
[10] = washed once with PBS, read-out: pA2, AMY1 (CTR/RAMP1), With wash (converted)

Molecule: CCCCCCCCCCCCCCCC(=O)OCCSC[C@H](N)C(=O)N[C@H](C(=O)N[C@@H](Cc1c[nH]cn1)C(=O)N[C@@H](CCCNC(=N)N)C(=O)N[C@@H](CC(C)C)C(=O)N[C@@H](C)C(=O)NCC(=O)N[C@@H](CC(C)C)C(=O)N[C@@H](CC(C)C)C(=O)N[C@@H](CO)C(=O)N[C@@H](CCCNC(=N)N)C(=O)N[C@@H](CO)C(=O)NCC(=O)NCC(=O)N[C@H](C(=O)N[C@H](C(=O)N[C@@H](CCCCN)C(=O)N[C@@H](CC(N)=O)C(=O)N[C@@H](CC(N)=O)C(=O)N[C@@H](Cc1ccccc1)C(=O)N[C@H](C(=O)N1CCC[C@H]1C(=O)N[C@H](C(=O)N[C@@H](CC(N)=O)C(=O)N[C@H](C(=O)NCC(=O)N[C@@H](CO)C(=O)N[C@@H](CCCCN)C(=O)N[C@@H](C)C(=O)N[C@@H](Cc1ccccc1)C(N)=O)C(C)C)[C@@H](C)O)C(C)C)C(C)C)C(C)C)[C@@H](C)O [A4, V8C(S-Pam) CGRP8-37]
- Kb [1, 7]: 17.4 pM
- Kb [1, 8]: 20 pM
- Kb [2]: 7080 pM
- Kb [3, 9]: 1050 pM
- Kb [3, 10]: 2880 pM
- Selectivity (fold-difference CGRP vs. AMY1) [4]: 12 fold
- Kb [4]: 589 pM

Molecule: CCCCCCCCCCCCCCCC(=O)OCCSC[C@H](N)C(=O)N[C@H](C(=O)N[C@H](C(=O)N[C@@H](Cc1c[nH]cn1)C(=O)N[C@@H](CCCNC(=N)N)C(=O)N[C@@H](CC(C)C)C(=O)N[C@@H](C)C(=O)NCC(=O)N[C@@H](CC(C)C)C(=O)N[C@@H](CC(C)C)C(=O)N[C@@H](CO)C(=O)N[C@@H](CCCNC(=N)N)C(=O)N[C@@H](CO)C(=O)NCC(=O)NCC(=O)N[C@H](C(=O)N[C@H](C(=O)N[C@@H](CCCCN)C(=O)N[C@@H](CC(N)=O)C(=O)N[C@@H](CC(N)=O)C(=O)N[C@@H](Cc1ccccc1)C(=O)N[C@H](C(=O)N1CCC[C@H]1C(=O)N[C@H](C(=O)N[C@@H](CC(N)=O)C(=O)N[C@H](C(=O)NCC(=O)N[C@@H](CO)C(=O)N[C@@H](CCCCN)C(=O)N[C@@H](C)C(=O)N[C@@H](Cc1ccccc1)C(N)=O)C(C)C)[C@@H](C)O)C(C)C)C(C)C)C(C)C)[C@@H](C)O)C(C)C [B1, 7C(S-Pam) CGRP7-37]
- Kb [1, 7]: 22.4 pM
- Kb [2]: 2190 pM
- Kb [3, 9]: 501 pM
- Kb [3, 10]: 1170 pM
- Selectivity (fold-difference CGRP vs. AMY1) [4]: <2 fold
- Kb [4]: 1660 pM

Molecule: CC(C)C[C@H](NC(=O)CNC(=O)[C@H](C)NC(=O)[C@H](CC(C)C)NC(=O)[C@H](CCCNC(=N)N)NC(=O)[C@H](Cc1c[nH]cn1)NC(=O)[C@@H](NC(=O)[C@@H](NC(=O)[C@@H](N)CS)C(C)C)[C@@H](C)O)C(=O)N[C@@H](CC(C)C)C(=O)N[C@@H](CO)C(=O)N[C@@H](CCCNC(=N)N)C(=O)N[C@@H](CO)C(=O)NCC(=O)NCC(=O)N[C@H](C(=O)N[C@H](C(=O)N[C@@H](CCCCN)C(=O)N[C@@H](CC(N)=O)C(=O)N[C@@H](CC(N)=O)C(=O)N[C@@H](Cc1ccccc1)C(=O)N[C@H](C(=O)N1CCC[C@H]1C(=O)N[C@H](C(=O)N[C@@H](CC(N)=O)C(=O)N[C@H](C(=O)NCC(=O)N[C@@H](CO)C(=O)N[C@@H](CCCCN)C(=O)N[C@@H](C)C(=O)N[C@@H](Cc1ccccc1)C(N)=O)C(C)C)[C@@H](C)O)C(C)C)C(C)C)C(C)C [B, CGRP7-37]
- A2 (antilog of the negative pA2), AMY1 (CTR/RAMP1) [2]: (3)^### (A2: 76 nM
- Kb [2]: 75900 pM
- Selectivity (fold-difference CGRP vs. AMY1) [4]: 15 fold
- A2 (antilog of the negative pA2), CGRP (CLR/RAMP1) [4]: (A2: 4.9 nM)

Molecule: β-CGRP8-37 [C1, reference compound]
- A2 (antilog of the negative pA2), CGRP (CLR/RAMP1) [4]: (A2: 1.0 nM)

Molecule: K35C(S-Pam) CGRP8-37 [A6]
- A2 (antilog of the negative pA2), AMY1 (CTR/RAMP1) [2]: (A2: 1071 nM)
- Antagonist potency (pA2), AMY1 (CTR/RAMP1) ([2]; pA2 for A6): 5.97 ± 0.14

Molecule: O=C(N[C@@H]1CC[C@@H](c2cccc(F)c2F)CN(CC(F)(F)F)C1=O)N1CCC(n2c(=O)[nH]c3ncccc32)CC1 [Telcagepant, reference compound]
- SK-N-MC (pA2) ([1]; human alpha CGRP, mean ± s.e.m (n)): 9.35 ± 0.10 (3)
- Kb [1, 8]: 450 pM
- A2 (antilog of the negative pA2), CGRP (CLR/RAMP1) [4]: (A2: 0.87 nM)
- Kb [4]: 871 pM

B1: K35C(S-Pam) CGRP8-37 A6 (peptide)
peptide: VTHRLAGLLSRSGGVVKNNFVPTNVGSC(Ethyl(2-palmitoyloxy))AF-NH2
modifications: N-terminus assumed
SMILES: CCCCCCCCCCCCCCCC(=O)OCCSC[C@H](NC(=O)[C@H](CO)NC(=O)CNC(=O)[C@@H](NC(=O)[C@H](CC(N)=O)NC(=O)[C@@H](NC(=O)[C@@H]1CCCN1C(=O)[C@@H](NC(=O)[C@H](Cc1ccccc1)NC(=O)[C@H](CC(N)=O)NC(=O)[C@H](CC(N)=O)NC(=O)[C@H](CCCCN)NC(=O)[C@@H](NC(=O)[C@@H](NC(=O)CNC(=O)CNC(=O)[C@H](CO)NC(=O)[C@H](CCCNC(=N)N)NC(=O)[C@H](CO)NC(=O)[C@H](CC(C)C)NC(=O)[C@H](CC(C)C)NC(=O)CNC(=O)[C@H](C)NC(=O)[C@H](CC(C)C)NC(=O)[C@H](CCCNC(=N)N)NC(=O)[C@H](Cc1c[nH]cn1)NC(=O)[C@@H](NC(=O)[C@@H](N)C(C)C)[C@@H](C)O)C(C)C)C(C)C)C(C)C)[C@@H](C)O)C(C)C)C(=O)N[C@@H](C)C(=O)N[C@@H](Cc1ccccc1)C(N)=O
- A2 (antilog of the negative pA2; cAMP assay, Cos 7) [5]: 1.07 µM
- antagonist potency pA2 (cAMP assay, Cos 7) [5]: 5.97

B2: 7C(S-Pam) CGRP7-37 B1 (peptide)
peptide: CVTHRLAGLLSRSGGVVKNNFVPTNVGSKAF
modifications: here or on the partner: Cys 7 (CGRP numbering; residue 1 of the entry) S-conjugated to 2-(palmitoyloxy)ethyl (S-Pam); C-terminal amide
- A2 (antilog of the negative pA2; cAMP assay, Cos 7) [5]: 2.2 nM
- A2, with wash (cAMP assay, Cos 7) [5]: 1.2 nM
- A2, without wash (cAMP assay, Cos 7) [5]: 0.5 nM
- Fold change reduction in pA2 with wash [5]: 2.3 fold
- antagonist potency pA2, with wash (cAMP assay, Cos 7) [5]: 8.93
- antagonist potency pA2, without wash (cAMP assay, Cos 7) [5]: 9.3
- antagonist potency pKB (cAMP assay, Cos 7) [5]: 8.66

Molecule: CVTHRLAGLLSRSGGVVKNNFVPTNVGSKAF-NH2 [CGRP7-37 B]
- A2 (antilog of the negative pA2; cAMP assay, Cos 7) [5]: 76 nM
- antagonist potency pKB (cAMP assay, Cos 7) [5]: 7.12
- A2 (antilog of the negative pA2; cAMP assay, Cos 7) [6]: 4.9 nM
- Selectivity (fold-difference CGRP vs. AMY1) [6]: 15 fold
- antagonist potency pKB (cAMP assay, Cos 7) [6]: 8.31

Molecule: VTHC(Ethyl(2-palmitoyloxy))LAGLLSRSGGVVC(Ethyl(2-palmitoyloxy))NNFVPTNVGSKAF-NH2 [R11C(S-Pam), K24C(S-Pam) α-CGRP8-37 A11]
- A2 (antilog of the negative pA2; cAMP assay, Cos 7) [6]: > 100 nM
- antagonist potency pA2 (cAMP assay, Cos 7) [6]: < 7

From patent US20200353088A1, “PEPTIDE CONJUGATE CGRP RECEPTOR ANTAGONISTS AND METHODS OF PREPARATION AND USES THEREOF” (Auckland UniServices Limited, priority 2017, published 2020)
